As usually defined, the melting point is the temperature, or range, at which the solid turns liquid.

Counter-ions that a name gives are not always drawn.

As to `CCOc1ccc(S(=O)(=O)N2C(=O)C(CCCN3CCC(O)CC3)(c3ccccc3F)c3cc(Cl)c(OC)cc32)cc1OC` (stereo not shown), the melting point stood at 102 °C.

As for `CCOc1ccc(S(=O)(=O)N2C(=O)C(CCCN3CCOCC3)(c3ccccc3F)c3cc(Cl)c(OC)cc32)cc1OC` (stereo not shown), the melting point was determined as 153 °C.

Consider `COc1cc2c(cc1C)C(CCCN1CCN(C)CC1)(c1ccccc1F)C(=O)N2S(=O)(=O)c1ccc(OC(C)C)cc1` (stereo not shown), for which the melting point came out at 70 °C.

As to `COc1cc2c(cc1F)C(CCCN1CCN(C)CC1)(c1ccccc1F)C(=O)N2S(=O)(=O)c1ccc(OC(C)C)cc1` (stereo not shown), the melting point was determined as 72 °C.

As to `COc1ccc(S(=O)(=O)N2C(=O)C(CCCN3CCN(C)CC3)(c3ccccc3F)c3cc(Cl)c(OC)cc32)c(OC)c1` (stereo not shown), the melting point was determined as 123 °C.

As for `COc1cc2c(cc1OC)C(CCCN1CCN(C)CC1)(c1ccccc1F)C(=O)N2S(=O)(=O)c1ccc(OC(C)C)c(F)c1` (stereo not shown), the melting point was found to be 74 °C.

`COc1cc2c(cc1F)C(CCCN1CCN(C)CC1)(c1ccccc1F)C(=O)N2S(=O)(=O)c1ccc(OC(C)C)c(F)c1` (stereo not shown) had a melting point of 72 °C.

Compound `COc1ccc(S(=O)(=O)N2C(=O)C(CCCN3CCN(C)CC3)(c3ccccc3F)c3cc(OC)c(OC)cc32)cc1C` (stereo not shown) had a melting point of 78 °C.

`COC(=O)c1ccc(F)c(C2(CCCN3CCN(C)CC3)C(=O)N(S(=O)(=O)c3ccc(OC(C)C)cc3)c3cc(OC)c(Cl)cc32)c1` (stereo not shown) came in with a melting point of 100 °C.

The compound `COc1cc2c(cc1Cl)C(CCCN1CCN(C)CC1)(c1cc(CO)ccc1F)C(=O)N2S(=O)(=O)c1ccc(OC(C)C)cc1` (stereo not shown) registered a melting point of 97 °C.

`CCN(CC)C(=O)Nc1ccc(S(=O)(=O)N2C(=O)C(CCCN(C)C)(c3ccccc3F)c3cc(C)c(OC)cc32)cc1C` (stereo not shown) showed a melting point of 98 °C.

For the compound `CCN(CC)C(=O)Nc1ccc(S(=O)(=O)N2C(=O)C(CCCN(C)C)(c3ccccc3F)c3cc(C)c(OC)cc32)cc1F` (stereo not shown), the melting point was determined as 82 °C.

`COc1cc2c(cc1Cl)C(CCCN1CCN(C)CC1)(c1ccccc1F)C(=O)N2S(=O)(=O)c1ccc(OC)c(OC)c1` (stereo not shown) yielded a melting point of 90 °C.

Turning to `COc1cc2c(cc1Cl)C(CCCN1CCN(C)CC1)(c1ccccc1F)C(=O)N2S(=O)(=O)c1ccc(O)cc1` (stereo not shown), the melting point was 169 °C.

Compound `COc1cc2c(cc1Cl)C(CCCN1CCN(C)CC1)(c1ccccc1F)C(=O)N2S(=O)(=O)c1ccc(OC(F)(F)C(F)F)cc1.Cl` (stereo not shown) yielded a melting point of 164 °C.

Compound `COc1ccc(S(=O)(=O)N2C(=O)C(CCCN3CCCCC3)(c3ccccc3F)c3cc(Cl)c(OC)cc32)c(OC)c1` (stereo not shown) yielded a melting point of 105 °C.

For `CCCCOc1ccc(S(=O)(=O)N2C(=O)C(CCCN3CCN(C)CC3)(c3ccccc3F)c3cc(Cl)c(OC)cc32)cc1` (stereo not shown) (as salt: HCl), the melting point amounted to 156 °C.

`COc1cc2c(cc1Cl)C(CCCN1CCCN(C)CC1)(c1ccccc1F)C(=O)N2S(=O)(=O)c1ccc(OC(C)C)cc1` (stereo not shown) (as salt: HCl) registered a melting point of 202 °C.

`COc1cc2c(cc1Cl)C(CCCCCN(C)C)(c1ccccc1F)C(=O)N2S(=O)(=O)c1ccc(OC(C)C)cc1` (stereo not shown) (as salt: HCl) registered a melting point of 125 °C.

`COc1cc2c(cc1Cl)C(CCCCCN1CCCCC1)(c1ccccc1F)C(=O)N2S(=O)(=O)c1ccc(OC(C)C)cc1` (stereo not shown) (as salt: HCl) had a melting point of 203 °C.

Take `COc1cc2c(cc1Cl)C(CCCN1CC[C@H](N)C1)(c1ccccc1F)C(=O)N2S(=O)(=O)c1ccc(OC(C)C)cc1` (stereo partly drawn) (as salt: HCl) [Compound No. 5, 3-{3-[(3S)-3-aminopyrrolidin-1-yl]propyl}-5-chloro-3-(2-fluorophenyl)-1-[(4-isopropoxyphenyl)sulfonyl]-6-methoxy-1,3-dihydro-2H-indol-2-one]: the melting point is 206 °C.

The compound `CCOc1ccc(S(=O)(=O)N2C(=O)C(CCCN3CC[C@@H](N)C3)(c3ccccc3F)c3cc(Cl)c(OC)cc32)cc1OC` (stereo partly drawn) (as salt: HCl) [Compound No. 6, 3-{3-[(3R)-3-aminopyrrolidin-1-yl]propyl}-5-chloro-1-[(4-ethoxy-3-methoxy-phenyl)sulfonyl]-3-(2-fluorophenyl)-6-methoxy-1,3-dihydro-2H-indol-2-one] yielded a melting point of 210 °C.

`CCOc1ccc(S(=O)(=O)N2C(=O)C(CCCN3CC[C@H](N)C3)(c3ccccc3F)c3cc(Cl)c(OC)cc32)cc1OC` (stereo partly drawn) (as salt: HCl) [Compound No. 7, 3-{3-[(3S)-3-aminopyrrolidin-1-yl]propyl}-5-chloro-1-[(4-ethoxy-3-methoxy-phenyl)sulfonyl]-3-(2-fluorophenyl)-6-methoxy-1,3-dihydro-2H-indol-2-one] displayed a melting point of 238 °C.

For the compound `COc1cccc(S(=O)(=O)N2C(=O)C(CCCN3CCN(C)CC3)(c3ccccc3F)c3cc(Cl)c(OC)cc32)c1` (stereo not shown) (as salt: HCl) [Compound No. 38], the melting point was determined as 147 °C.

Regarding `COc1cc2c(cc1Cl)C(CCCN1CCNCC1)(c1ccccc1F)C(=O)N2S(=O)(=O)c1ccc(O)cc1` (stereo not shown) (as salt: HCl) [Compound No. 46], the melting point was determined as 292 °C.

As for `COc1ccc(S(=O)(=O)N2C(=O)C(CCCN3CCNCC3)(c3ccccc3F)c3cc(Cl)c(OC)cc32)c(OC)c1` (stereo not shown) (as salt: HCl) [compound 16, 5-chloro-1-[(2,4-dimethoxyphenyl)sulfonyl]-3-(2-fluorophenyl)-6-methoxy-3-(3-(piperazin-1-yl)propyl)-1,3-dihydro-2H-indol-2-one], the melting point amounted to 243 °C.

Consider `CCOc1ccc(S(=O)(=O)N2C(=O)C(CCCN3CCNCC3)(c3ccccc3F)c3cc(Cl)c(OC)cc32)cc1OC` (stereo not shown) (as salt: HCl) [compound 18, 5-chloro-1-[(4-ethoxy-3-methoxyphenyl)sulfonyl]-3-(2-fluorophenyl)-6-methoxy-3-(3-(piperazin-1-yl)propyl)-1,3-dihydro-2H-indol-2-one], for which the melting point was determined as 220 °C.

For the compound `COc1cc2c(cc1Cl)C(CCCN1CCNCC1)(c1ccccc1F)C(=O)N2S(=O)(=O)c1ccc(OC)c(OC)c1` (stereo not shown) (as salt: HCl) [compound 19, 5-chloro-1-[(3,4-dimethoxyphenyl)sulfonyl]-3-(2-fluorophenyl)-6-methoxy-3-(3-(piperazin-1-yl)propyl)-1,3-dihydro-2H-indol-2-one], the melting point turned out to be 190 °C.

Take `COc1cc2c(cc1Cl)C(CCCN1CCNCC1)(c1ccccc1F)C(=O)N2S(=O)(=O)c1ccc(C)c(C)c1` (stereo not shown) (as salt: HCl) [compound 20, 5-chloro-1-[(3,4-dimethylphenyl)sulfonyl]-3-(2-fluorophenyl)-6-methoxy-3-(3-(piperazin-1-yl)propyl)-1,3-dihydro-2H-indol-2-one]: the melting point stood at 192 °C.

With `COc1ccc(S(=O)(=O)N2C(=O)C(CCCN3CCNCC3)(c3ccccc3F)c3cc(Cl)c(OC)cc32)cc1C` (stereo not shown) (as salt: HCl) [compound 21, 5-chloro-3-(2-fluorophenyl)-6-methoxy-1-[(4-methoxy-3-methylphenyl)sulfonyl]-3-(3-(piperazin-1-yl)propyl)-1,3-dihydro-2H-indol-2-one], the melting point was found to be 234 °C.

For the compound `CCOc1ccc(S(=O)(=O)N2C(=O)C(CCCN3CCNCC3)(c3ccccc3F)c3cc(Cl)c(OC)cc32)cc1` (stereo not shown) (as salt: HCl) [compound 22, 5-chloro-1-[(4-ethoxyphenyl)sulfonyl]-3-(2-fluorophenyl)-6-methoxy-3-(3-(piperazin-1-yl)propyl)-1,3-dihydro-2H-indol-2-one], the melting point was found to be 213 °C.

In the case of `CCOc1ccc(S(=O)(=O)N2C(=O)C(CCCN3CCNCC3)(c3ccccc3F)c3cc(Cl)c(OC)cc32)cc1C` (stereo not shown) (as salt: HCl) [compound 23, 5-chloro-1-[(4-ethoxy-3-methylphenyl)sulfonyl]-3-(2-fluorophenyl)-6-methoxy-3-(3-(piperazin-1-yl)propyl)-1,3-dihydro-2H-indol-2-one], the melting point is 226 °C.

Consider `COc1cc2c(cc1Cl)C(CCCN1CCNCC1)(c1ccccc1F)C(=O)N2S(=O)(=O)c1ccc(OC(F)F)cc1` (stereo not shown) (as salt: HCl) [compound 24, 5-chloro-1-{[4-(difluoromethoxy)phenyl]sulfonyl}-3-(2-fluorophenyl)-6-methoxy-3-(3-(piperazin-1-yl)propyl)-1,3-dihydro-2H-indol-2-one], for which the melting point was 218 °C.

Regarding `COc1cc2c(cc1Cl)C(CCCN1CCNCC1)(c1ccccc1F)C(=O)N2S(=O)(=O)c1ccc(OC(F)(F)F)cc1` (stereo not shown) (as salt: HCl) [compound 25, 5-chloro-3-(2-fluorophenyl)-6-methoxy-3-(3-(piperazin-1-yl)propyl)-1-{[4-(tri-fluoromethoxy)phenyl]sulfonyl}-1,3-dihydro-2H-indol-2-one], the melting point is 220 °C.

`COc1cc2c(cc1Cl)C(CCCN1CCNCC1)(c1ccccc1F)C(=O)N2S(=O)(=O)c1ccccc1` (stereo not shown) (as salt: HCl) [compound 26, 5-chloro-3-(2-fluorophenyl)-6-methoxy-1-(phenylsulfonyl)-3-(3-(piperazin-1-yl)propyl)-1,3-dihydro-2H-indol-2-one] showed a melting point of 238 °C.

Consider `COc1ccc(S(=O)(=O)N2C(=O)C(CCCN3CCNCC3)(c3ccccc3F)c3cc(F)c(OC)cc32)cc1C` (stereo not shown) (as salt: HCl) [compound 107], for which the melting point was 152 °C.

`COc1ccc(S(=O)(=O)N2C(=O)C(CCCN3CCNCC3)(c3ccccc3F)c3cc(OC)c(OC)cc32)cc1C` (stereo not shown) (as salt: HCl) [compound 108] displayed a melting point of 160 °C.

`COc1ccc(S(=O)(=O)N2C(=O)C(CCCC3CCNCC3)(c3ccccc3F)c3cc(Cl)c(OC)cc32)c(OC)c1.Cl` (stereo not shown) [Compound No. 1]: the melting point amounted to 163 °C.

Compound `COc1ccc(S(=O)(=O)N2C(=O)C(CCCC3CCNCC3)(c3ccccc3F)c3cc(Cl)c(OC)cc32)c(OC)c1.Cl` (stereo not shown) [Compound No. 2] registered a melting point of 175 °C.

`CCOc1ccc(S(=O)(=O)N2C(=O)C(CCCN3CCC(F)(F)CC3)(c3ccccc3F)c3cc(Cl)c(OC)cc32)cc1OC` (stereo not shown) [compound 9, 5-chloro-3-[3-(4,4-difluoropiperidin-1-yl)propyl]-1-[(4-ethoxy-3-methoxy-phenyl)sulfonyl]-3-(2-fluorophenyl)-6-methoxy-1,3-dihydro-2H-indol-2-one] registered a melting point of 88 °C.

(Values after patent US8362067B2, “3-aminoalkyl-1,3-dihydro-2H-indol-2-one derivatives, preparation thereof and therapeutic use thereof” (Sanofi, priority 2008, dated 2013).)
